Reference: patent US10016409B2, “Method for improving interstitial flow” (priority 2012, dated 2018)
Structures can show the parent of a compound that is named as a salt.

Experiments:
MCI patients [1] = settings: cited from earlier work; for conversion from MCI to Alzheimer: Non-patent Document 3; for effectiveness on MCI patients: clinical trials, Guidelines for Management of Dementia
MCI patients [2] = test: Clinical record analysis, MMSE change in MCI patients (MMSE 22 to 26) under donepezil hydrochloride oral administration; assay type: in vivo, human; settings: MCI patients MMSE 22-26
Excerpt: Patients subjected to oral administration of donepezil hydrochloride, having an observation period of one or more years before the MMSE test date, and having first MMSE scores less than or equal to 26 were picked up from a clinical record. Among the patients, patients recorded to have been consecutively administered with cilostazol for 6 months or more in the observation period were classified as a donepezil hydrochloride and cilostazol combined use group (69 cases), and patients recorded to have experienced no cilostazol oral administration were classified as a donepezil hydrochloride single use group (87 cases). Cilostazol was oral-administered at a dosage of 50 to 200 mg/day in the morning and evening, and donepezil hydrochloride was administered at a dosage of 5 mg/day once in a day. Among the patients, patients with MMSE scores greater than or equal to 22 and less than or equal to 26 were extracted as an MCI patient group. Then, 36 cases (16 males and 20 females, average age: 78.4 years old) of the donepezil hydrochloride single use group (hereinafter referred to as a single use group) and 34 cases (15 males and 19 females, average age: 77.2 years old) of the donepezil hydrochloride and cilostazol combined use group (hereinafter referred to as combined use group) were found. The average dosage of cilostazol in the combined use group was 121 mg/day. […] Measurement of MMSE was conducted at least twice in the observation period, and the first and last test results were selected for analysis.

dementia patients = test: Clinical record analysis, MMSE change in dementia patients (MMSE less than or equal to 21) under donepezil hydrochloride oral administration; assay type: in vivo, human; settings: dementia patients MMSE less than or equal to 21
Excerpt: Patients subjected to oral administration of donepezil hydrochloride, having an observation period of one or more years before the MMSE test date, and having first MMSE scores less than or equal to 26 were picked up from a clinical record. Among the patients, patients recorded to have been consecutively administered with cilostazol for 6 months or more in the observation period were classified as a donepezil hydrochloride and cilostazol combined use group (69 cases), and patients recorded to have experienced no cilostazol oral administration were classified as a donepezil hydrochloride single use group (87 cases). Cilostazol was oral-administered at a dosage of 50 to 200 mg/day in the morning and evening, and donepezil hydrochloride was administered at a dosage of 5 mg/day once in a day.
As a dementia patient group oral-administered with donepezil hydrochloride, patients with MMSE scores less than or equal to 21 were extracted. Then, the donepezil hydrochloride single use group (the single use group) was 51 cases (17 males and 34 females, average age: 78.2 years old) and the donepezil hydrochloride and cilostazol combined use group (the combined use group) was 35 cases (14 males and 21 females, average age: 79.3 years old). The average dosage of cilostazol in the combined use group was 139 mg/day.

CS(=O)(=O)c1ccc(C2=C(c3ccccc3)C(=O)OC2)cc1 [rofecoxib]
prophylactic effects (dementia or MCI) (MCI patients [1]; guideline p. 116, Other Drugs (2)): no prophylactic effects

COc1cc2c(cc1OC)C(=O)C(CC1CCN(Cc3ccccc3)CC1)C2 (stereo not drawn) [donepezil hydrochloride]
MMSE change rate (MCI patients [2]; increment or decrement of MMSE score/observation period [year], average±standard error, p=0.022 between groups): −2.23±0.69
change rate of MMSE item 1 of orientation to time (MCI patients [2]; per observation period [year], p=0.003): −0.85
change rate of MMSE item 2 of orientation to location (MCI patients [2]; per observation period [year], p=0.017): −0.31
change rate of MMSE item 5 of delayed recall (MCI patients [2]; per observation period [year], p=0.045): −0.28
change rate of MMSE item 5 of delayed recall (dementia patients; p=0.37): −0.15
change rate of MMSE item 2 of orientation to location (dementia patients; p=0.86): −0.13
change rate of MMSE item 1 of orientation to time (dementia patients; p=0.89): −0.16
MMSE change rate (dementia patients; per observation period, average±standard error, p=0.72 between groups): −0.90±037
conversion from MCI to Alzheimer (MCI patients [1]): do not affect conversion from MCI to Alzheimer
effectiveness on MCI patients (MCI patients [1]): very limited or is not present

CCN(C)C(=O)Oc1cccc([C@H](C)N(C)C)c1 [rivastigmine]
effectiveness on MCI patients (MCI patients [1]): very limited or is not present

vitamin E
conversion from MCI to Alzheimer (MCI patients [1]): do not affect conversion from MCI to Alzheimer
dementia prophylactic effect / prophylactic effect against conversion to Alzheimer (MCI patients [1]; RCT directed to MCI patients): neither dementia prophylactic effect nor prophylactic effect against conversion to Alzheimer was obtained

estrogen
risk of onset of dementia or MCI (MCI patients [1]; RCT, postmenopausal women of 65 years of age or more without dementia): increased the risk of onset of dementia or MCI significantly
